{"source": "patent US12325710B2", "about": "“Substituted 1,2,3,4,5,6-hexahydroazepino[4,5-b]indoles for treating brain disorders” (priority 2019, dated 2025)", "key": {"5-HT2B receptors": {"molecular_target": "5-HT2B receptors (Homo sapiens, UniProt P41595)", "sequence (P41595 whole entry, canonical isoform)": "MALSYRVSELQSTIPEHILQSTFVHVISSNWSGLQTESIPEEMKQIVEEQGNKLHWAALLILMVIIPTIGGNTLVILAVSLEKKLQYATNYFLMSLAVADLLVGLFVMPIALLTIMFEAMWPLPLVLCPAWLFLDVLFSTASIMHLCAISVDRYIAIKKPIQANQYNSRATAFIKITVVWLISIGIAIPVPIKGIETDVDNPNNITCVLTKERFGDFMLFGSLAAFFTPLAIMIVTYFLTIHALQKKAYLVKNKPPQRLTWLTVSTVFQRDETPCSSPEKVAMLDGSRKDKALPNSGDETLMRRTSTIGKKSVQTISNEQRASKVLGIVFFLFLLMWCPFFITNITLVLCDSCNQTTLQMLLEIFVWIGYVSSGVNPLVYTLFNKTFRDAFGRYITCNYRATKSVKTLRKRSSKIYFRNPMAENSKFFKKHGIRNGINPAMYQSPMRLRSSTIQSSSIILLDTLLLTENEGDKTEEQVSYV", "test": "5-HT2B Gq-mediated calcium flux functional assay", "format": "cell-based", "procedure": "(§1) Serotonin and Opioid Receptor Functional Assays. Functional assay screens at 5-HT and opioid receptors were performed in parallel using the same compound dilutions and 384-well format high-throughput assay platforms. Assays assessed activity at all human isoforms of the receptors, except where noted for the mouse 5-HT2A receptor. Receptor constructs in pcDNA vectors were generated from the Presto-Tango GPCR library with minor modifications. All compounds were serially diluted in drug buffer (HBSS, 20 mM HEPES, pH 7.4 supplemented with 0.1% bovine serum albumin and 0.01% ascorbic acid) and dispensed into 384-well assay plates using a FLIPR^TETRA (Molecular Devices). Every plate included a positive control such as 5-HT (for all 5-HT receptors), DADLE (DOR), salvinorin A (KOR), and DAMGO (MOR). For measurements of 5-HT2A, 5-HT2B, and 5-HT2C Gq-mediated calcium flux function, HEK Flp-In 293 T-Rex stable cell lines (Invitrogen) were loaded with Fluo-4 dye for one hour, stimulated with compounds and read for baseline (0-10 seconds) and peak fold-over-basal fluorescence (5 minutes) at 25° C. on the FLIPR^TETRA. For measurement of 5-HT6 and 5-HT7a functional assays, Gs-mediated cAMP accumulation was detected using the split-luciferase GloSensor assay in HEKT cells measuring luminescence on a Microbeta Trilux (Perkin Elmer) with a 15 min drug incubation at 25° C. For 5-HT1A, 5-HT1B, 5-HT1F, MOR, KOR, and DOR functional assays, Gi/o-mediated cAMP inhibition was measured using the split-luciferase GloSensor assay in HEKT cells, conducted similarly as above, but in combination with either 0.3 μM isoproterenol (5-HT1A, 5-HT1B, 5-HT1F) or 1 μM forskolin (MOR, KOR, and DOR) to stimulate endogenous cAMP accumulation. For measurement of 5-HT1D, 5-HT1E, 5-HT4, and 5-HT5A functional assays, β-arrestin2 recruitment was measured by the Tango assay utilizing HTLA cells expressing TEV fused-β-arrestin2, as described previously with minor modifications. […]"}, "[1]": {"system": "opioid receptors (MOR, KOR, DOR)", "test": "Opioid receptor functional assays (Gi/o-mediated cAMP inhibition)", "format": "cell-based, human", "procedure": "as §1, with “C.” for “C. For 5-HT1A, 5-HT1B, 5-HT1F, MOR, KOR, and DOR functional assays, Gi/o-mediated cAMP inhibition was measured using the split-luciferase GloSensor assay in HEKT cells, conducted similarly as above, but in combination with either 0.3 μM isoproterenol (5-HT1A, 5-HT1B, 5-HT1F) or 1 μM forskolin (MOR, KOR, and DOR) to stimulate endogenous cAMP accumulation. For measurement of 5-HT1D, 5-HT1E, 5-HT4, and 5-HT5A functional assays, β-arrestin2 recruitment was measured by the Tango assay utilizing HTLA cells expressing TEV fused-β-arrestin2, as described previously with minor modifications.”"}}}
{"smiles": "COc1ccc2c3c([nH]c2c1)CCN(C)CC3", "note": "[TBG]", "values": [{"measurement": "activity mode at 5-HT2B receptors", "setting": "5-HT2B receptors", "result": "antagonists"}, {"measurement": "opioid agonist activity", "setting": "[1]", "result": "weak or no opioid agonist activity"}]}
